Measurements: patent US10561145B2, “Fused bicyclic heterocycle derivatives as pesticides” (Bayer CropScience Aktiengesellschaft, priority 2016, dated 2020)
Where two headings read alike, the source gives them in different places.

Experiments:
[1] = log P by HPLC on a reversed-phase column (C18), EEC Directive 79/831 Annex V.A8; assay type: physicochemical; details: 55° C.
Procedure: The log P values are measured according to EEC Directive 79/831 Annex V.A8 by HPLC (high-performance liquid chromatography) on a reversed-phase column (C18). Temperature: 55° C. The LC-MS determination in the acidic range is carried out at pH 2.7 using the mobile phases 0.1% aqueous formic acid and acetonitrile (contains 0.1% formic acid); linear gradient from 10% acetonitrile to 95% acetonitrile. Called log P (HCOOH) or log P[a] in the table. The LC-MS determination in the neutral range is carried out at pH 7.8 using the mobile phases 0.001 molar aqueous ammonium bicarbonate solution and acetonitrile; linear gradient from 10% acetonitrile to 95% acetonitrile. Called log P (neutral) or log P[n] in the table. Calibration is carried out using unbranched alkan-2-ones (having 3 to 16 carbon atoms) with known log P values (log P values determined on the basis of the retention times by linear interpolation between two successive alkanones).

Myzus persicae [2] = experiment: Myzus persicae - oral test; assay type: in vivo; details: application rate 4 ppm, after 5 days, green peach aphids, mixed population, oral uptake
Procedure: Myzus persicae—Oral Test Solvent: 100 parts by weight of acetone To produce a suitable preparation of active compound, 1 part by weight of active compound is dissolved using the specified parts by weight of solvent and made up with water until the desired concentration is attained. 50 μl of the active compound preparation are transferred into microtitre plates and made up to a final volume of 200 μl with 150 μl of IPL41 insect medium (33%+15% sugar). Subsequently, the plates are sealed with parafilm, which a mixed population of green peach aphids (Myzus persicae) within a second microtitre plate is able to puncture and imbibe the solution through it. After 5 days, the efficacy in % is determined. 100% means that all the aphids have been killed; 0% means that no aphids have been killed.

Myzus persicae [3] = experiment: Myzus persicae - spray test; assay type: in vivo; details: application rate 20 g/ha, after 5 days, sprayed Chinese cabbage leaf discs, all stages of green peach aphid
Procedure: Myzus persicae—Spray Test Solvent: 78 parts by weight of acetone • • 1.5 parts by weight of dimethylformamide Emulsifier: alkylaryl polyglycol ether To produce a suitable active compound preparation, 1 part by weight of active compound is dissolved with the specified parts by weight of solvent and made up with water containing an emulsifier concentration of 1000 ppm until the desired concentration is attained. To produce further test concentrations, the formulation is diluted with emulsifier-containing water. Discs of Chinese cabbage leaves (Brassica pekinensis) infested by all stages of the green peach aphid (Myzus persicae) are sprayed with an active compound formulation of the desired concentration. After 5 days, the efficacy in % is determined. 100% means that all the aphids have been killed; 0% means that no aphids have been killed.

Phaedon cochleariae = Phaedon cochleariae - spray test; assay type: in vivo; details: application rate 100 g/ha, after 7 days, sprayed Chinese cabbage leaf discs, mustard beetle larvae
Procedure: Phaedon cochleariae—Spray Test
Solvent: 78.0 parts by weight of acetone • • 1.5 parts by weight of dimethylformamide
Emulsifier: alkylaryl polyglycol ether
To produce a suitable active compound preparation, 1 part by weight of active compound is dissolved with the specified parts by weight of solvent and made up with water containing an emulsifier concentration of 1000 ppm until the desired concentration is attained. To produce further test concentrations, the formulation is diluted with emulsifier-containing water.
Discs of Chinese cabbage leaves (Brassica pekinensis) are sprayed with an active compound formulation of the desired concentration and, after drying, populated with larvae of the mustard beetle (Phaedon cochleariae).
After 7 days, the efficacy in % is determined. 100% means that all the beetle larvae have been killed; 0% means that no beetle larvae have been killed.

[4] = acidic range, pH 2.7, 0.1% aqueous formic acid/acetonitrile gradient, read-out: log P[a] (log P (HCOOH))
[5] = neutral range, pH 7.8, 0.001 molar aqueous ammonium bicarbonate/acetonitrile gradient, read-out: log P[n] (log P (neutral))

| SMILES | chromatographic logP [1, 4] | chromatographic logP [1, 5] | efficacy in % (aphids killed) (Myzus persicae [2]) [%] | efficacy in % (aphids killed) (Myzus persicae [3]) [%] | efficacy in % (beetle larvae killed) (Phaedon cochleariae) [%] |
| --- | --- | --- | --- | --- | --- |
| CCS(=O)(=O)c1c(-c2nc3cc(C(F)(F)F)cnc3n2C)ncc2ncsc12 [Example I-1, 7-(Ethylsulfonyl)-6-[3-methyl-6-(trifluoromethyl)-3H-imidazo[4,5-b]pyridin-2-yl][1,3]thiazolo[4,5-c]pyridine] | 2.6 | 2.53 | 100 | 90 | 83 |
| CC[S+]([O-])c1c(-c2nc3cc(C(F)(F)F)cnc3n2C)ncc2ncsc12 (centres unmarked) [Example I-2, 7-(Ethylsulfinyl)-6-[3-methyl-6-(trifluoromethyl)-3H-imidazo[4,5-b]pyridin-2-yl][1,3]thiazolo[4,5-c]pyridine] | 3.09 | 2.98 |  |  |  |
| CCSc1c(-c2nc3cc(C(F)(F)F)cnc3n2C)ncc2ncsc12 [Example I-3, 7-(Ethylsulfanyl)-6-[3-methyl-6-(trifluoromethyl)-3H-imidazo[4,5-b]pyridin-2-yl][1,3]thiazolo[4,5-c]pyridine] | 2.96 | 2.94 |  |  |  |
| CCS(=O)(=O)c1c(-c2nc3cc(C(F)(F)F)cnc3n2C)ncc2ccsc12 [Example I-4] | 2.88 | 2.82 | 100 | 90 | 100 |
| CCS(=O)(=O)c1c(-c2nc3cc(C(F)(F)F)ncc3n2C)ncc2ccsc12 [Example I-5] | 2.53 | 2.4 |  | 90 |  |
| CCSc1c(-c2nc3cc(C(F)(F)F)ncc3n2C)ncc2ccsc12 [Example I-6] | 2.95 | 2.85 |  |  |  |
| CCS(=O)(=O)c1c(-c2nc3cc(C(F)(F)F)cnc3n2C)ncc2sccc12 [Example I-7] | 2.56 | 2.72 | 100 | 100 |  |

The next lines start with results.

| chromatographic logP [1, 4] | chromatographic logP [1, 5] | SMILES | efficacy in % (aphids killed) (Myzus persicae [2]) [%] | efficacy in % (aphids killed) (Myzus persicae [3]) [%] | efficacy in % (beetle larvae killed) (Phaedon cochleariae) [%] |
| --- | --- | --- | --- | --- | --- |
| 2.3 | 2.28 | CCS(=O)(=O)c1c(-c2nc3cc(C(F)(F)F)ncc3n2C)ncc2sccc12 [Example I-8] | 100 | 100 |  |
| 2.23 | 2.17 | CCOC(=O)c1ncc2ncsc2c1SCC [XL-1, Ethyl 7-(ethylsulfanyl)[1,3]thiazolo[4,5-c]pyridine-6-carboxylate] |  |  |  |
| 0.88 |  | CCSc1c(C(=O)O)ncc2ncsc12 [XLI-1, 7-(Ethylsulfanyl)[1,3]thiazolo[4,5-c]pyridine-6-carboxylic acid] |  |  |  |
| 2.58 | 2.57 | CCOC(=O)c1ncc2ncsc2c1OS(=O)(=O)C(F)(F)F [XXXIV-1, Ethyl 7-{[(trifluoromethyl)sulfonyl]oxy}[1,3]thiazolo[4,5-c]pyridine-6-carboxylate] |  |  |  |
